These results are taken from ChEMBL document CHEMBL4725391, “Discovery and Optimization of Novel SUCNR1 Inhibitors: Design of Zwitterionic Derivatives with a Salt Bridge for the Improvement of Oral Exposure” (J Med Chem, 2020).

The structures appear in SMILES notation. Calls of active or inactive are those of the source. The calls are words filed in the database; no cut-off is given here.

Data set [1] in a line: Octanol-water distribution coefficient, log D of the compound by shake flask method. In kind it is physicochemical.
Data set [2] in a line: Permeability of compound by PAMPA assay. The data set is classed as ADME. On the technique in general: The PAMPA barrier holds no transporters, so it reflects passive diffusion.
Data set [3] can be described thus: Ionization constant (acid), pKa of the compound by UV metric assay. In kind it is physicochemical.
The target of a further data set is T1, Succinate receptor 1 (Homo sapiens, UniProt Q9BXA5).
T1 sequence (Q9BXA5 whole entry): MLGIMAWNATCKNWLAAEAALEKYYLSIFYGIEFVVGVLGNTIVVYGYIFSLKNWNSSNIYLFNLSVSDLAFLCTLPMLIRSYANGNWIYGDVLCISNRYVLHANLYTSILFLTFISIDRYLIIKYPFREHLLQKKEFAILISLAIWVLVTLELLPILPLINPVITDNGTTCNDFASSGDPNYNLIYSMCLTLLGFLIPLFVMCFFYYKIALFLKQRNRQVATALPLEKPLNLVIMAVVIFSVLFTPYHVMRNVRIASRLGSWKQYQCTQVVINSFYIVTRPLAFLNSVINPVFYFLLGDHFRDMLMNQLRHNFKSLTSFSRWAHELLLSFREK
Nature of the data set: Antagonist activity at human SUCNR1 expressed in human CHEM1 cells incubated for 60 mins in presence of [35S]GTPgammaS by scintillation proximity assay. In kind it is functional, cell-based, Chem-1. For orientation: Binding of GTPγS marks nucleotide exchange on a G protein.

Data set [4] is described as follows: Ionization constant (base), pKa of the compound. The data set is classed as physicochemical.
The nature of data set [5]: Protein binding in human plasma at 5 uM incubated for 4 hrs by LC-MS/MS analysis. The data set is classed as ADME, cell-free. As to conditions: read-out: PPB (converted).
Data set [6] is described as follows: Oral bioavailability in C57BL/6 mouse measured after 0.25 to 24 hrs by LC-MS/MS analysis. The data set is classed as ADME, organism-based. As to conditions: in vivo, time 0.25-24 hrs.
Data set [7] is described as follows: Clearance in C57BL/6 mouse at 1 mg/kg, iv administered as bolus dose measured after 0.083 to 24 hrs by LC-MS/MS analysis. The data set is classed as ADME, organism-based. The following applies: in vivo, time 0.083-24 hrs.
Data set [8] can be described thus: Dose normalized AUC in C57BL/6 mouse at 3 mg/kg, po measured after 0.25 to 24 hrs by LC-MS/MS analysis. In kind it is ADME, organism-based. As to conditions: in vivo, time 0.25-24 hrs.
The target in data set [9] is T2, Succinate receptor 1 (Rattus norvegicus) (UniProt Q6IYF9).
T2 sequence (whole entry): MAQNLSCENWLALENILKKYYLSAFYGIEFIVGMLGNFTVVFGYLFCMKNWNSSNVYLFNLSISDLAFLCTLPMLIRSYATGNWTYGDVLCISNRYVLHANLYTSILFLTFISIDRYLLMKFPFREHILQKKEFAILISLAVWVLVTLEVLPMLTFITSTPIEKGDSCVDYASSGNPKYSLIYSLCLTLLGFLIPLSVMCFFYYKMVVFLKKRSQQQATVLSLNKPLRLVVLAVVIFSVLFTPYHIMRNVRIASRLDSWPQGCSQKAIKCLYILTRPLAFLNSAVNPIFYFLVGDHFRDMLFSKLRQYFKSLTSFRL
Nature of the data set: Antagonist activity at rat SUCNR1 expressed in CHO-K1 cell membranes at 100 uM incubated for 60 mins in presence of [35S]GTPgammaS by scintillation proximity assay relative to control. As to conditions: filed as antagonist. In kind it is functional.

Data set [10] addresses T3, Succinate receptor 1 (Mus musculus) (UniProt Q99MT6).
T3 sequence (whole entry): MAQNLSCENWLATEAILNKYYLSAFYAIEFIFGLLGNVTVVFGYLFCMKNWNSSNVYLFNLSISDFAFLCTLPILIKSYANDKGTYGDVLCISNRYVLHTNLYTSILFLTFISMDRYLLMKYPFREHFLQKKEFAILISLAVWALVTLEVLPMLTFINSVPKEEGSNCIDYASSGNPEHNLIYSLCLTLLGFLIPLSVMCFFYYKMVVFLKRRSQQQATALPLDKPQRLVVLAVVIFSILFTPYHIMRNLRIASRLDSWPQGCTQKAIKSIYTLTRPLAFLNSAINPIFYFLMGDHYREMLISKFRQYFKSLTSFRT
The experiment in a line: Antagonist activity at mouse SUCNR1 100 uM.

For a further data set, the target named is Coagulation factor XI (Homo sapiens, UniProt P03951). Nature of the data set: Inhibition of human factor 11a by TR-FRET assay. Background: Time-resolved FRET reads energy transfer from a long-lived donor to a nearby acceptor.
The target in the next data set is Complement factor D (Homo sapiens, UniProt P00746). Nature of the data set: Inhibition of recombinant human CFD expressed in Escherichia coli incubated up to 2 hrs by TR-FRET assay.
The nature of data set [11]: Protein binding in C57BL/6 mouse plasma at 5 uM incubated for 4 hrs by LC-MS/MS analysis. In kind it is ADME, cell-free. The following applies: read-out: PPB (converted).
A short description of data set [12]: Intrinsic clearance in rat liver microsomes. In kind it is ADME, Microsome. The following applies: read-out: CLH.
Data set [13] has as its target T4, Succinate receptor 1 (Homo sapiens) (UniProt Q9BXA5).
T4 sequence (whole entry): T1 sequence (Q9BXA5 whole entry)
Nature of the data set: Antagonist activity at human SUCNR1 expressed in human CHEM1 cell membranes at 100 uM incubated for 60 mins in presence of [35S]GTPgammaS by scintillation proximity assay. The data set is classed as functional. As to conditions: Chem-1.

A short description of data set [14]: Dose normalized AUC in C57BL/6 mouse at 10 mg/kg, po measured after 0.25 to 24 hrs by LC-MS/MS analysis. The data set is classed as ADME, organism-based. As to conditions: in vivo, time 0.25-24 hrs.
The nature of data set [15]: Oral bioavailability in C57BL/6 mouse at 10 mg/kg measured after 0.25 to 24 hrs by LC-MS/MS analysis. In kind it is ADME, organism-based. As to conditions: in vivo, time 0.25-24 hrs.

Sequence of Complement factor D (P00746 whole entry): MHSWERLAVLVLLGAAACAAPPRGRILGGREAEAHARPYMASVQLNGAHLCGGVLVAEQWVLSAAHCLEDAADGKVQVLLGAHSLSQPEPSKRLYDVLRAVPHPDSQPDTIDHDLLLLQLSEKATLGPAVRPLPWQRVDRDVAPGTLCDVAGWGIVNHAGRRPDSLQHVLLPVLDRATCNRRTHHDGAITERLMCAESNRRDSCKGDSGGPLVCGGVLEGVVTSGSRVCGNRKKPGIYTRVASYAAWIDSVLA
Sequence of Coagulation factor XI (P03951 19-387 limits assumed): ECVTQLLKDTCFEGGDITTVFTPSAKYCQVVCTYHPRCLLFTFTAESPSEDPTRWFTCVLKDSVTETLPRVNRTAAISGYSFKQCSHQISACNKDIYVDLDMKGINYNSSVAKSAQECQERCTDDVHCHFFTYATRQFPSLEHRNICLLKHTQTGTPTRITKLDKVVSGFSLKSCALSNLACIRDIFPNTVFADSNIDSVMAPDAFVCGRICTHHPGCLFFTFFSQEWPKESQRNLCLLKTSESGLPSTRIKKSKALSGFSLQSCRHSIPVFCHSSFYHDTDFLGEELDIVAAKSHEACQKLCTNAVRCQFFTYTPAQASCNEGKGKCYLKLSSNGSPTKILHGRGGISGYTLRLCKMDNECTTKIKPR
Sequence of Coagulation factor XI (P03951 388-625 limits assumed): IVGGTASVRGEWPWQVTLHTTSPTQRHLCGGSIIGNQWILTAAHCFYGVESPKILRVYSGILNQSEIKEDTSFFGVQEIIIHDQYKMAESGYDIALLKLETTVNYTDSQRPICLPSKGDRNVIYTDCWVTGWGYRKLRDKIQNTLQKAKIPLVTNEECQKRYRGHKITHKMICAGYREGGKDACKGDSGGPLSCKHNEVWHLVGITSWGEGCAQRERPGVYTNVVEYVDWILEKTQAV

For orientation: logD means lipophilicity at a set pH, counting ionised and neutral species. In data set [1], `O=C(O)Cc1ccccc1NC(=O)c1cccc(-c2ccc(Cl)c(OC3CCNC3)c2)c1` (configuration not stated) had a logD of 2.8. For the same compound, the “log(permeability)” value in data set [2] is reported as -5.3.
In general, pKa refers to the pH at which an ionisable group is half protonated. The term IC50 denotes the concentration needed to halve the response being measured. `O=C(O)Cc1ccccc1NC(=O)c1cccc(-c2ccc(Cl)c(OC3CCCNC3)c2)c1` (configuration not stated): the pKa was determined as 4.1 in data set [3] and 9.4 in data set [4]. The logD in data set [1] is 3.6. Also, at Succinate receptor 1, the IC50 is 520 nM. Moreover, the “log(permeability)” value in data set [2] is reported as -4.4.
For `O=C(O)Cc1ccccc1NC(=O)c1cccc(-c2ccc(Cl)cc2)c1`, in [5], the fraction unbound at 4 h, 5 µM is less than 0.01. This compound also displayed a logD in data set [1] of 1.9. Besides, the IC50 at Succinate receptor 1 worked out at 1300 nM. In addition, in data set [2], the “log(permeability)” value was -3.8.
Usually clearance stands for the rate of elimination divided by the concentration. Low readings indicate inefficient removal, high ones efficient removal. For the compound `O=C(O)Cc1cc(F)ccc1NC(=O)c1cccc(-c2ccc(Cl)c(O[C@@H]3CCCNC3)c2F)c1`, the bioavailability in [6] came to 93%. This compound also had a clearance in data set [7] of 1.2 mL/min/kg. Also, the AUC/dose in [8] stood at 26100 nmol·h/L. Also, the “log(permeability)” value in [2] is given as -4.9.
The term inhibition denotes how much of the control response was suppressed. `O=C(O)Cc1cc(F)ccc1NC(=O)c1cccc(-c2cc(O[C@@H]3CCCNC3)c(Cl)cc2F)c1F`: in [6], the bioavailability came to 74%. Further, the values for the inhibition in data set [9] and in data set [10] were 56% and 23%, respectively. The compound also yielded a clearance in data set [7] of 0.6 mL/min/kg. Also, the AUC/dose in data set [8] amounted to 37000 nmol·h/L. For the same compound, the IC50 at Succinate receptor 1 came to 88 nM. Moreover, the “log(permeability)” value in [2] is -5.1.
Turning to `O=C(O)Cc1ccccc1NC(=O)c1cccc(-c2ccc(Cl)c(OC3CNC3)c2)c1`, the logD in data set [1] came out at 2.6. Further, the “log(permeability)” value in data set [2] is listed as -5.2.
`O=C(O)Cc1ccccc1NC(=O)c1cccc(-c2ccc(Cl)c(OC3CCNCC3)c2)c1`: the pKa came out at 4.1 in data set [3] and 9.9 in data set [4]. Besides, the logD in [1] was 2.5. In addition, the IC50 at Succinate receptor 1 was determined as 140 nM. Further, the “log(permeability)” value in data set [2] is -5.4.
Turning to `O=C(O)Cc1cc(F)ccc1NC(=O)c1cccc(-c2cc(O[C@@H]3CCCNC3)c(Cl)cc2F)c1`, the bioavailability in [6] worked out at 137%. This compound also yielded a clearance in data set [7] of 8 mL/min/kg. Moreover, the AUC/dose in [8] is 5737 nmol·h/L. For the same compound, in data set [2], the “log(permeability)” value is recorded as -4.4.
Consider `O=C(O)Cc1ccccc1NC(=O)c1cccc(-c2ccc(Cl)c(O[C@@H]3CCCNC3)c2F)c1`, for which the bioavailability in data set [6] was determined as 81%. In data set [7], this compound had a clearance of 12 mL/min/kg. The compound further had an AUC/dose in data set [8] of 2353 nmol·h/L. Also, the “log(permeability)” value in data set [2] is -5.
As for `O=C(Nc1ccccc1C(=O)O)c1cccc(-c2ccc(Cl)cc2)c1`, the logD in [1] came to 3. The IC50 on Succinate receptor 1 came to 23000 nM. In [2], the “log(permeability)” value is given as -3.7.
Consider `NCc1cc(-c2cccc(C(=O)Nc3ccccc3CC(=O)O)c2)ccc1Cl`, for which the fraction unbound at 4 h, 5 µM in data set [5] is 0.021. Besides, the IC50 was 5.8 µM against Coagulation factor XI, 300 nM on Succinate receptor 1 and greater than 100 µM at Complement factor D. For the same compound, the logD in data set [1] is 2.1. In addition, in data set [2], the “log(permeability)” value is reported as -5.3.
Compound `CN1CCN(Cc2ccc(-c3cccc(C(=O)Nc4ccccc4CC(=O)O)c3)cc2)CC1` showed a logD in data set [1] of 0.5. Also, the “log(permeability)” value in data set [2] is given as -5.5.
For the compound `O=C(O)C[C@H](NC(=O)c1cccc(-c2ccc(Cl)cc2)c1)c1cccnc1`, the logD in [1] came to 1.3. In addition, at Succinate receptor 1, the IC50 turned out to be 12000 nM. Further, the “log(permeability)” value in data set [2] was -5.3.
For `O=C(O)Cc1ccccc1NC(=O)c1cccc(-c2ccc(Cl)c(O[C@H]3CCCNC3)c2)c1F`, the fraction unbound at 4 h, 5 µM in data set [5] was 0.014; in data set [11], 0.003.
For `O=C(O)Cc1ccccc1NC(=O)c1cccc(-c2ccc(Cl)cc2)c1F`, the bioavailability in data set [6] is 95%. The clearance in data set [7] came to 10 mL/min/kg. The compound further had a logD in [1] of 1.4. In [8], the AUC/dose came out at 7814 nmol·h/L. In [2], the “log(permeability)” value was -3.6.
For `O=C(O)CC(NC(=O)c1cccc(-c2ccc(Cl)cc2)c1)c1cccnc1` (configuration not stated), in data set [12], the microsomal CLint amounted to 25 µL/min/mg. Besides, in data set [1], the logD stood at 0.9. Besides, the IC50 at Succinate receptor 1 worked out at 32000 nM. Also, in data set [2], the “log(permeability)” value is -5.3.
On to `O=C(O)C[C@@H](NC(=O)c1cccc(-c2ccc(Cl)cc2)c1)c1cccnc1`, for which, in data set [13], the inhibition result was “inactive”.
With `NCc1cccc(-c2cccc(C(=O)Nc3ccccc3CC(=O)O)c2)c1`, the pKa amounted to 4 in data set [3] and 9.5 in data set [4]. In addition, the IC50 on Succinate receptor 1 came out at 27000 nM. Besides, the “log(permeability)” value in data set [2] was less than -5.3. The compound also came in with an AUC/dose in [14] of 206 nmol·h/L.
Consider `O=C(O)Cc1ccccc1NC(=O)c1cccc(-c2ccc(Cl)c(O[C@@H]3CCCNC3)c2)c1F`, for which the fraction unbound at 4 h, 5 µM is 0.04 in data set [5] and 0.026 in data set [11]. Besides, the bioavailability in [6] came to 46%. For the same compound, in data set [7], the clearance came out at 11 mL/min/kg. This compound also came in with an AUC/dose in [8] of 1437 nmol·h/L. Moreover, the “log(permeability)” value in data set [2] is listed as -5.3.
`NCc1cccc(-c2cccc(COc3ccccc3CC(=O)O)c2)c1`: the figures for the pKa in data set [3] and in [4] were 4.4 and 9.4, respectively. In addition, in data set [15], the bioavailability is greater than 100%. For the same compound, the IC50 on Succinate receptor 1 is greater than 100000 nM. Moreover, in data set [2], the “log(permeability)” value is recorded as -4.5. In addition, in data set [14], the AUC/dose turned out to be 3646 nmol·h/L.
`NCCOc1cc(-c2cccc(C(=O)Nc3ccccc3CC(=O)O)c2)ccc1Cl` showed a logD in [1] of 2.8. Moreover, in data set [2], the “log(permeability)” value is reported as -5.4.
